Assay results reported in patent US11154063B2, “Method for producing a bacteriostatic and fungistatic additive in masterbatch for application in plastics” (SERVICIOS ADMINISTRATIVOS PEÑOLES, S.A. DE C.V., priority 2013, dated 2021).

Tested on: S. aureus
Test: Inhibition in RP 340 polypropylene copolymer after aging in UV chamber
Assay type: cell-based
Conditions: after 120 h of aging in UV chamber

Oc1cc(Cl)ccc1Oc1ccc(Cl)cc1Cl [triclosan]
After 120 h of aging Inhibition %.: starts decreasing its antimicrobial effectiveness
